Measurements reported in patent US20170334899A1, “AMINO-SUBSTITUTED ISOTHIAZOLES” (Bayer Pharma Aktiengesellschaft, priority 2014, published 2017).
Counter-ions that a name gives are not always drawn. Like-named read-outs stand apart in the source and are kept apart here.

Experiments:
Assay type in all cases: cell-based
Caco-2 = test: Proliferation assay (crystal violet), Caco-2; details: Homo sapiens, 96 h; Caco-2 cells; 4 days incubation; crystal violet staining; read-out: IC50 inhibition of proliferation, Caco2
Method: (§1) Cultivated tumor cells (cells were ordered from ATCC, except HeLa-MaTu and HeLa-MaTu-ADR, which were ordered from EPO-GmbH, Berlin) were plated at a density of 1000 to 5000 cells/well, depending on the growth rate of the respective cell line, in a 96-well multititer plate in 200 μL of their respective growth medium supplemented 10% fetal calf serum. After 24 hours, the cells of one plate (zero-point plate) were stained with crystal violet (see below), while the medium of the other plates was replaced by fresh culture medium (200 μl), to which the test substances were added in various concentrations (0 μM, as well as in the range of 0.001-10 μM; the final concentration of the solvent dimethyl sulfoxide was 0.5%). The cells were incubated for 4 days in the presence of test substances. Cell proliferation was determined by staining the cells with crystal violet: the cells were fixed by adding 20 μl/measuring point of an 11% glutaric aldehyde solution for 15 minutes at room temperature. After three washing cycles of the fixed cells with water, the plates were dried at room temperature. The cells were stained by adding 100 μl/measuring point of a 0.1% crystal violet solution (pH 3.0). After three washing cycles of the stained cells with water, the plates were dried at room temperature. The dye was dissolved by adding 100 μl/measuring point of a 10% acetic acid solution. Absorbtion was determined by photometry at a wavelength of 595 nm. The change of cell number, in percent, was calculated by normalization of the measured values to the aborbtion values of the zero-point plate (=0%) and the absorbtion of the untreated (0 μm) cells (=100%). The IC50 values were determined by means of a 4 parameter fit.

DU145 = test: Proliferation assay (crystal violet), DU145; details: Homo sapiens, DU-145, 96 h; DU145 cells; 4 days incubation; crystal violet staining; read-out: IC50 inhibition of proliferation, DU145
Method: as §1

HeLa-MaTu-ADR = test: Proliferation assay (crystal violet), HeLa-MaTu-ADR; details: 96 h; HeLa-MaTu-ADR cells; 4 days incubation; crystal violet staining; read-out: IC50 inhibition of proliferation, HeLa-MaTu-ADR
Method: as §1

HeLa = test: Proliferation assay (crystal violet), HeLa; details: HeLa cells, 4 days incubation, crystal violet staining, read-out: IC50 inhibition of proliferation, HeLa
In short: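 Crystal violet proliferation readout, 4-day compound incubation, 0.001–10 μM, final DMSO 0.5%. Zero-point plate stained at time of dosing set as 0%, untreated control as 100%; IC50 via 4-parameter fit.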

B16F10 = test: Proliferation assay (crystal violet), B16F10; details: Mus musculus, B16-F10, 96 h; B16F10 cells; 4 days incubation; crystal violet staining; read-out: IC50 inhibition of proliferation, B16F10
Method: as §1

NCI-H460 = test: Proliferation assay (crystal violet), NCI-H460; details: Homo sapiens, 96 h; NCI-H460 cells; 4 days incubation; crystal violet staining; read-out: IC50 inhibition of proliferation, NCI-H460
Method: as §1

Compound	IC50 (Caco-2)	IC50 (DU145)	IC50 (HeLa-MaTu-ADR)	IC50 (HeLa; Homo sapiens, HeLa, 96 h)	IC50 (B16F10)	IC50 (NCI-H460)	IC50 (HeLa)
Cc1nsc(Nc2cnc(C(F)(F)F)cn2)c1C(=O)Nc1ccc(OC2CCN(CCF)CC2)nc1 [Example 7, N-(6-{[1-(2-Fluoroethyl)piperidin-4-yl]oxy}pyridin-3-yl)-3-methyl-5-{[5-(trifluoromethyl)pyrazin-2-yl]amino}-1,2-thiazole-4-carboxamide]	920 nM	1400 nM	520 nM	580 nM	1500 nM	810 nM	
Cc1nsc(Nc2cnc(C(F)(F)F)cn2)c1C(=O)Nc1ccc(OC2CCN(CC(F)F)CC2)nc1 [Example 8, N-(6-{[1-(2,2-Difluoroethyl)piperidin-4-yl]oxy}pyridin-3-yl)-3-methyl-5-{[5-(trifluoromethyl)pyrazin-2-yl]amino}-1,2-thiazole-4-carboxamide]	150 nM	250 nM	110 nM	280 nM	210 nM	100 nM	
Cc1nsc(Nc2cnc(C(F)(F)F)cn2)c1C(=O)Nc1ccc(OC2CCN(CC(F)(F)F)CC2)nc1 [Example 9, -Methyl-N-(6-{[1-(2,2,2-trifluoroethyl)piperidin-4-yl]oxy}pyridin-3-yl)-5-{[5-(trifluoromethyl)pyrazin-2-yl]amino}-1,2-thiazole-4-carboxamide]	160 nM	300 nM	130 nM	220 nM	190 nM	98 nM	
Cc1nsc(Nc2cnc(C(F)(F)F)cn2)c1C(=O)Nc1ccc(OC2CCN(CCC(F)(F)F)CC2)nc1 [Example 10, 3-Methyl-5-{[5-(trifluoromethyl)pyrazin-2-yl]amino}-N-(6-{[1-(3,3,3-trifluoropropyl)-piperidin-4-yl]oxy}pyridin-3-yl)-1,2-thiazole-4-carboxamide]	180 nM	140 nM	57 nM	330 nM	300 nM	170 nM	
Cc1nsc(Nc2cncc(C(F)(F)F)n2)c1C(=O)Nc1ccc(OC2CCN(C(=O)OC(C)(C)C)CC2)nc1 [Example 12, tert-Butyl 4-[(5-{[(3-methyl-5-{[6-(trifluoromethyl)pyrazin-2-yl]amino}-1,2-thiazol-4-yl)carbonyl]amino}pyridin-2-yl)oxy]piperidine-1-carboxylate]	470 nM	1100 nM	640 nM	910 nM	400 nM	270 nM	
Cc1nsc(Nc2cnc(C(F)(F)F)cn2)c1C(=O)Nc1ccc(C(=O)OC(C)(C)C)cc1 [Example 96, tert-Butyl 4-{[(3-methyl-5-{[5-(trifluoromethyl)pyrazin-2-yl]amino}-1,2-thiazol-4-yl)carbonyl]amino}benzoate]	330 nM	800 nM	410 nM	1100 nM	1100 nM	740 nM	
Cc1nsc(Nc2ccc(C#N)cn2)c1C(=O)Nc1ccc(C(=O)OC(C)(C)C)cc1 [Example 98, tert-Butyl 4-[({5-[(5-cyanopyridin-2-yl)amino]-3-methyl-1,2-thiazol-4-yl}carbonyl)-amino]benzoate]	110 nM	460 nM	150 nM	690 nM	460 nM	170 nM	
Cc1nsc(Nc2cnc3ccccc3n2)c1C(=O)Nc1cccc(-c2nc(C(C)(C)C)no2)c1 [Example 108, N-[3-(3-tert-Butyl-1,2,4-oxadiazol-5-yl)phenyl]-3-methyl-5-(quinoxalin-2-ylamino)-1,2-thiazole-4-carboxamide]	300 nM	570 nM	330 nM	910 nM	700 nM	290 nM	
Cc1nsc(Nc2cnc(C(F)(F)F)cn2)c1C(=O)Nc1ccc(OCC2CCN(C(=O)OC(C)(C)C)C2)nc1 (centres unmarked) [Example 109, tert-Butyl 3-{[(5-{[(3-methyl-5-{[5-(trifluoromethyl)pyrazin-2-yl]amino}-1,2-thiazol-4-yl)carbonyl]amino}pyridin-2-yl)oxy]methyl}pyrrolidine-1-carboxylate]	280 nM	660 nM	170 nM	200 nM	350 nM	230 nM	
Cc1nsc(Nc2ccc(C#N)cn2)c1C(=O)Nc1ccc(NC2CCCN(C(=O)OC(C)(C)C)C2)nc1 (centres unmarked) [Example 171, tert-butyt 3-({5-[({5-[(5-cyanopyridin-2-yl)amino]-3-methyl-1,2-thiazol-4-yl}carbonyl)amino]pyridin-2-yl}amino)piperidine-1-carboxylate]				6200 nM			
Cc1nsc(Nc2cnc3ccccc3n2)c1C(=O)Nc1ccc(NC2CC2)nc1 [Example 172, N-[6-(cyclopropylamino)pyridin-3-yl]-3-methyl-5-(quinoxalin-2-ylamino)-1,2-thiazole-4-carboxamide]				> 10000 nM			
COc1ccc(NC(=O)c2c(C)nsc2Nc2ccc(C#N)cn2)c(N2CCOCC2)n1 [Example 173, 5-[(5-cyanopyridin-2-yl)amino]-N-[6-methoxy-2-(morpholin-4-yl)pyridin-3-yl]-3-methyl-1,2-thiazole-4-carboxamide]				> 10000 nM			
Cc1nsc(Nc2cnc(C(F)(F)F)cn2)c1C(=O)Nc1ccc(F)c(OCC2CCCN(CC(F)F)C2)c1 (centres unmarked) [Example 335, N-(3-{[1-(2,2-difluoroethyl)piperidin-3-yl]methoxy}-4-fluorophenyl)-3-methyl-5-{[5-(trifluoromethyl)pyrazin-2-yl]amino}-1,2-thiazole-4-carboxamide]							840 nM
Cc1nsc(Nc2cnc(C(F)(F)F)cn2)c1C(=O)Nc1ccc(O[C@@H]2CCN(CC(F)(F)F)C2)nc1 [Example 421, 3-Methyl-N-(6-{[(3R)-1-(2,2,2-trifluoroethyl)pyrrolidin-3-yl]oxy}pyridin-3-yl)-5-{[5-(trifluoromethyl)pyrazin-2-yl]amino}-1,2-thiazole-4-carboxamide]							550 nM
Cc1nsc(Nc2cnc(C(F)(F)F)cn2)c1C(=O)Nc1ccc(OC[C@@H]2CCCN(CCC(F)(F)F)C2)nc1 [Example 422, 3-Methyl-5-{[5-(trifluoromethyl)pyrazin-2-yl]amino}-N-(6-{[(3R)-1-(3,3,3-trifluoropropyl)piperidin-3-yl]methoxy}pyridin-3-yl)-1,2-thiazole-4-carboxamide]							370 nM
Cc1nsc(Nc2cnc(C(F)(F)F)cn2)c1C(=O)Nc1ccc(O[C@@H]2CCN(CCC(F)(F)F)C2)nc1 [Example 423, 3-Methyl-5-{[5-(trifluoromethyl)pyrazin-2-yl]amino}-N-(6-{[(3R)-1-(3,3,3-trifluoropropyl)pyrrolidin-3-yl]oxy}pyridin-3-yl)-1,2-thiazole-4-carboxamide]							410 nM
Cc1nsc(Nc2cnc(C(F)(F)F)cn2)c1C(=O)Nc1ccc(OC2CCN(CCC(F)(F)F)CC2)nc1 [Example 426, 3-Methyl-5-{[5-(trifluoromethyl)pyrazin-2-yl]amino}-N-(6-{[1-(3,3,3-trifluoro-propyl)piperidin-4-yl]oxy}pyridin-3-yl)-1,2-thiazole-4-carboxamide, Salt with Hydrochloric Acid]							420 nM
